Assay results published in US10640495B2, “Heterocycle derivatives having TrkA inhibitory activity” (Shionogi & Co., Ltd., priority 2015, dated 2020).
pIC50: −log10 of the molar value.

Target: human TrkA (Homo sapiens (Human), UniProt P04629)
Test: Human TrkA inhibition assay (Test Example 2)
Type: biochemical
Settings: Table 152, human TrkA inhibition; read-out: IC50_nM
Method: Seven point five μL per well of human TrkA (PV3144, Lifetechnologies, final concentration: 1 nmol/L) suspended in the assay buffer (100 mmol/L 4-(2-hydroxyethyl)-1-piperazineethanesulfonic acid (HEPES), 10 mmol/L magnecium chloride, 0.003 vol % Brij-35, 0.004 vol % Tween20 and 1 mmol/L dithiothreitol (DTT)) was applied in a 384 well plate and the plate was pre-incubated for 15 min at room temperature with 0.4 μL of each compound (final concentration: 200 μmol/L-1 pmol/L) dissolved in DMSO. Then, fluorescent substrate (FL-peptide 27, 760424, PerkinElmer, final concentration: 1.5 μmol/L) and ATP (final concentration 500 μmol/L) dissolved in the assay buffer was added in each well. After the incubation of 120 min at 37° C., fifteen μL of termination buffer (100 mmol/L HEPES, 40 mmol/L ethylenediaminetetraacetic acid (EDTA), 10 mmol/L magnecium chloride, 0.003 vol % Brij-35, 0.004 vol % Tween20, 1 mmol/L DTT and 0.16 vol % Coating Reagent 3) was added in each well to stop the enzyme reaction. Fluorescent intensities (FI) of phosphorylated and non-phosphorylated fluorescent substrates were measured by LabChip EZReader II (Caliper LifeSciences, Inc.), and conversion ratio (CR) was calculated by the following formula-1. The CR in the well applied with DMSO alone was used as a negative control and the CR in the well without applying TrkA was used as a positive control. The inhibitory effect of each compound on TrkA phosphorylation was calculated by the following formula-2. CR (%)=(FI of phosphorylated substrate/(FI of phosphorylated substrate+FI of non-phosphorylated substrate))×100 (Formula-1) Phosphorylation inhibition (%)=(1−(CR with compound treatment−CR of positive control)/(CR of negative control−CR of positive control))×100 (Formula-2)
IC50 values (nmol/L) were determined by the logistic regression using the inhibition data in 10 points of 3-fold dilution series at a compound concentration range of 20 nmol/L to 1 pmol/L, or 10 points of 3-fold dilution series at the range of 2 μmol/L to 0.1 nmol/L, or 10 points of 3-fold dilution series at the range of 200 μmol/L to 10 nmol/L, or 15 points of 3-fold dilution series at the range of 200 μmol/L to 0.04 nmol/L.
The evaluation results of the compounds in the present invention are indicated as follows. IC50 values of 0 to 100 nM, 100 to 1000 nM and over 1000 nM were shown as “A”, “B” and “C”, respectively.

Chain of human TrkA (P04629 440-796): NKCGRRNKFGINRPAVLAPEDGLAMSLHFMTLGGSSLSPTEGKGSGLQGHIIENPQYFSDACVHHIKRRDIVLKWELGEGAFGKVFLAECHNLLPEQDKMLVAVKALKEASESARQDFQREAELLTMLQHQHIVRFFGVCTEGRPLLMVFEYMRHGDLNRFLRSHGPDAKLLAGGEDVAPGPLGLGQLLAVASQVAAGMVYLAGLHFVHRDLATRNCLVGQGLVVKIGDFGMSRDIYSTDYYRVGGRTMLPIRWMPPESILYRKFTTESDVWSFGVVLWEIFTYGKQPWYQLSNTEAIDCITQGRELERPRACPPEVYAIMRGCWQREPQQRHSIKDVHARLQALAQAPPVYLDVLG

| pIC50 | SMILES |
| --- | --- |
| > 7.00 | COCCN1C[C@@H](NC(=O)Nc2c(C)c(-c3cnc4nc(C)nn4c3)nn2-c2ccccc2)[C@H](c2ccc(F)c(F)c2)O1 (racemic) [Compound I-43] |
| > 7.00 | COCCN1C[C@@H](NC(=O)Nc2c(C)c(-c3cnc4ncnn4c3)nn2-c2ccccc2)[C@H](c2ccc(F)c(F)c2)O1 (racemic) [Compound I-44] |

Same assay, conditions: Table 153, human TrkA inhibition; read-out: IC50

| pIC50 | SMILES |
| --- | --- |
| > 7.00 | COCCN1C[C@@H](NC(=O)Nc2c(C)c(-c3cnc(C)nc3)nn2-c2ccccc2)[C@H](c2cnc(F)c(F)c2)O1 (racemic) [Compound I-45] |
| > 7.00 | COCCN1C[C@@H](NC(=O)Nc2c(C)c(C3=CCN(C(=O)OC(C)(C)C)CC3)nn2-c2ccccc2)[C@H](c2cnc(F)c(F)c2)O1 (racemic) [Compound I-46] |
| > 7.00 | COCCN1C[C@@H](NC(=O)Nc2c(C)c(C3=CCNCC3)nn2-c2ccccc2)[C@H](c2cnc(F)c(F)c2)O1 (racemic) [Compound I-48] |
| > 7.00 | COCCN1C[C@@H](NC(=O)Nc2c(C)c(C3=CCN(C(C)=O)CC3)nn2-c2ccccc2)[C@H](c2cnc(F)c(F)c2)O1 (racemic) [Compound I-49] |
| > 7.00 | COCCN1C[C@@H](NC(=O)Nc2c(C)c(-c3cccc(C(=O)OC(C)(C)C)c3)nn2-c2ccccc2)[C@H](c2ccc(F)c(F)c2)O1 (racemic) [Compound I-50] |
| > 7.00 | COCCN1C[C@@H](NC(=O)Nc2c(C)c(-c3cccc(C(=O)O)c3)nn2-c2ccccc2)[C@H](c2ccc(F)c(F)c2)O1 (racemic) [Compound I-51] |
| > 7.00 | COCCN1C[C@@H](NC(=O)Nc2c(C)c(-c3cnn(C)c3)nn2-c2ccccc2)[C@H](c2cnc(F)c(F)c2)O1 (racemic) [Compound I-52] |
| > 7.00 | COCCN1C[C@@H](NC(=O)Nc2c(C)c(C3=CCN(C(=O)CO)CC3)nn2-c2ccccc2)[C@H](c2ccc(F)c(F)c2)O1 (racemic) [Compound I-53] |
| > 7.00 | COCC[C@@H]1C[C@@H](NC(=O)Nc2c(C)c(C3=CCN(C(=O)OC(C)(C)C)CC3)nn2-c2ccccc2)[C@H](c2ccc(F)c(F)c2)O1 (racemic) [Compound I-54] |
| > 7.00 | COCC[C@@H]1C[C@@H](NC(=O)Nc2c(C)c(C3=CCNCC3)nn2-c2ccccc2)[C@H](c2ccc(F)c(F)c2)O1 (racemic) [Compound I-55] |
| > 7.00 | COCC[C@@H]1C[C@@H](NC(=O)Nc2c(C)c(C3=CCN(C(=O)CO)CC3)nn2-c2ccccc2)[C@H](c2ccc(F)c(F)c2)O1 (racemic) [Compound I-56] |
| > 7.00 | COCCN1C[C@@H](NC(=O)Nc2c(C)c(-c3ccc(C#N)cc3)nn2-c2ccccc2)[C@H](c2cnc(F)c(F)c2)O1 (racemic) [Compound I-60] |
| > 7.00 | COCCN1C[C@@H](NC(=O)Nc2c(C)c(OCC(C)(C)O)nn2-c2ccccc2)[C@H](c2ccc(F)c(F)c2)O1 (racemic) [Compound I-61] |
| > 7.00 | CCN1CCC(NC(=O)c2cc(-c3nn(-c4ccccc4)c(NC(=O)N[C@@H]4CN(CCOC)O[C@H]4c4ccc(F)c(F)c4)c3C)ccn2)CC1 (racemic) [Compound I-62] |
| > 7.00 | COCCN1C[C@@H](NC(=O)Nc2c(C)c(-c3cnc4cnn(C)c4c3)nn2-c2ccccc2)[C@H](c2ccnc(F)c2)O1 (racemic) [Compound I-63] |
| > 7.00 | CCN1CCC(NC(=O)c2cc(-c3nn(-c4ccccc4)c(NC(=O)N[C@@H]4C[C@@H](CCOC)O[C@H]4c4ccc(F)c(F)c4)c3C)ccn2)CC1 (racemic) [Compound I-64] |

| pIC50 | SMILES |
| --- | --- |
| > 7.00 | COCCN1C[C@@H](NC(=O)Nc2c(C)c(-c3cnc4c(cnn4C)c3)nn2-c2ccccc2)[C@H](c2cnc(F)c(F)c2)O1 (racemic) [Compound I-67] |
| > 7.00 | CCOc1ncc(-c2nn(-c3ccccc3)c(NC(=O)N[C@@H]3CN(CCOC)O[C@H]3c3cnc(F)c(F)c3)c2C)cn1 (racemic) [Compound I-68] |
| > 7.00 | COCCN1C[C@@H](NC(=O)Nc2c(C)c(-c3cnc4c(c3)ncn4C)nn2-c2ccccc2)[C@H](c2cnc(F)c(F)c2)O1 (racemic) [Compound I-69] |
| > 7.00 | COCCN1C[C@@H](NC(=O)Nc2c(C)c(-c3cnc(C4CC4)nc3)nn2-c2ccccc2)[C@H](c2cnc(F)c(F)c2)O1 (racemic) [Compound I-70] |
| > 7.00 | COCCN1C[C@@H](NC(=O)Nc2c(C)c(-c3cc(C)c(=O)n(C)c3)nn2-c2ccccc2)[C@H](c2cnc(F)c(F)c2)O1 (racemic) [Compound I-71] |
| > 7.00 | COCCN1C[C@@H](NC(=O)Nc2c(C)c(-c3cnc4c(c3)ncn4C)nn2-c2ccccc2)[C@H](c2ccc(F)c(F)c2)O1 (racemic) [Compound I-72] |
| > 7.00 | COCCN1C[C@@H](NC(=O)Nc2c(C)c(-c3cc(C(=O)NC4CCOCC4)c(=O)n(C)c3)nn2-c2ccccc2)[C@H](c2cnc(F)c(F)c2)O1 (racemic) [Compound I-74] |
| > 7.00 | CNC(=O)c1cc(-c2nn(-c3ccccc3)c(NC(=O)N[C@@H]3CN(CCOC)O[C@H]3c3cnc(F)c(F)c3)c2C)cn(C)c1=O (racemic) [Compound I-75] |
| > 7.00 | COCCN1C[C@@H](NC(=O)Nc2c(C)c(-c3ccnc(C(=O)OCc4ccccc4)c3)nn2-c2ccccc2)[C@H](c2ccc(F)c(F)c2)O1 (racemic) [Compound I-76] |
| > 7.00 | COCCN1C[C@@H](NC(=O)Nc2c(C)c(-c3ccnc(N=S(C)(C)=O)c3)nn2-c2ccccc2)[C@H](c2ccc(F)c(F)c2)O1 (racemic) [Compound I-77] |
| > 7.00 | COCCN1C[C@@H](NC(=O)Nc2c(C)c(-c3cnc4c(c3)nc(CO)n4C)nn2-c2ccccc2)[C@H](c2ccc(F)c(F)c2)O1 (racemic) [Compound I-78] |
| > 7.00 | COCCN1C[C@@H](NC(=O)Nc2c(C)c(-c3cc(COC(C)=O)c(=O)n(C)c3)nn2-c2ccccc2)[C@H](c2cnc(F)c(F)c2)O1 (racemic) [Compound I-80] |
| > 7.00 | COCCN1C[C@@H](NC(=O)Nc2c(C)c(-c3cc(CO)c(=O)n(C)c3)nn2-c2ccccc2)[C@H](c2cnc(F)c(F)c2)O1 (racemic) [Compound I-81] |
| > 7.00 | COCCN1C[C@@H](NC(=O)Nc2c(C)c(-c3cnc4c(c3)c(CO)nn4C)nn2-c2ccccc2)[C@H](c2cnc(F)c(F)c2)O1 (racemic) [Compound I-84] |
| > 7.00 | COCCN1C[C@@H](NC(=O)Nc2c(C)c(-c3cncc(N=S(C)(C)=O)c3)nn2-c2ccccc2)[C@H](c2ccc(F)c(F)c2)O1 (racemic) [Compound I-85] |
| > 7.00 | COCCN1C[C@@H](NC(=O)Nc2c(C)c(-c3cnn(C)c3)nn2-c2ccc(F)c(F)c2)[C@H](c2ccc(F)c(F)c2)O1 (racemic) [Compound I-86] |

Same assay, conditions: human TrkA 1 nmol/L, ATP 500 μmol/L, 120 min at 37° C.; read-out: IC50 values (TrkA phosphorylation inhibition)

| pIC50 | SMILES |
| --- | --- |
| 8.40 | COCCN1C[C@@H](NC(=O)Nc2c(C)c(-c3cnc(C)nc3)nn2-c2ccccc2)[C@H](c2ccnc(F)c2)O1 (racemic) [Compound I-47] |
| 8.80 | COCCN1C[C@@H](NC(=O)Nc2c(C)c(-c3ccc(N=S(C)(C)=O)nc3)nn2-c2ccccc2)[C@H](c2ccc(F)c(F)c2)O1 (racemic) [Compound I-66] |
| 8.92 | CNC(=O)c1cc(-c2nn(-c3ccccc3)c(NC(=O)N[C@@H]3CN(CCOC)O[C@H]3c3cnc(F)c(F)c3)c2C)cnc1OC (racemic) [Compound I-73] |
| 8.82 | COCCN1C[C@@H](NC(=O)Nc2c(C)c(-c3cnc4c(c3)c(=O)n(C)n4C)nn2-c2ccccc2)[C@H](c2cnc(F)c(F)c2)O1 (racemic) [Compound I-79] |
